In patent publication US11279733B2, “Peptide antibiotics” (priority 2017, dated 2022):
In brackets after ≈: the same amount, converted by molar mass. Read-outs that look alike come from different tables or passages of the source. Starred links: 1 amine or outer side, 2 acyl side, 3 side chain; linkers in the order of their positions; H or OH if unused. Positions of bridges follow the written chain, without caps; N, C: chain ends. Non-standard residues stand in square brackets, D forms with d. Residues, ends and D or L forms follow the SMILES beside them. *: point of attachment. X12 = O=C(c1ccn(-c2ccccc2)c(=O)c1)*; NH(2-ClPh) = Clc1ccccc1N*; Octanoyl = CCCCCCCC(=O)*; dDap = NC[C@@H](N)C(=O)O; Dab = NCC[C@H](N)C(=O)O; CO = O=C([*:1])[*:2]

Tests used:
A. baumannii ATCC 19606 = tested on: A. baumannii ATCC 19606
Summary of the method: (§1)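 Mid-log cultures grown in Mueller Hinton broth at 37° C were tested by 2-fold broth microdilution at 5×10^5 CFU/mL final. Compounds were dissolved in water and tested over a final range of 32 to 0.015 μg/mL.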

A. baumannii GN_093 PmxR = tested on: A. baumannii GN_093 PmxR
Summary of the method: as §1

E. coli ATCC 25922 = tested on: E. coli ATCC 25922
Summary of the method: as §1

K. pneumoniae ATCC 13883 = tested on: K. pneumoniae ATCC 13883
Summary of the method: as §1

[1] = tested on: K. pneumoniae ATCC 700603, MDR
Summary of the method: as §1

[2] = tested on: K. pneumoniae ATCC BAA-2146, NDM-1 pos
Summary of the method: as §1

[3] = tested on: K. pneumoniae GN_102 PmxR
Summary of the method: as §1

[4] = tested on: K. pneumoniae GN_106, PmxR
Summary of the method: as §1

P. aeruginosa ATCC 27853 = tested on: P. aeruginosa ATCC 27853
Summary of the method: as §1

[5] = tested on: P. aeruginosa GN_043, PmxR
Summary of the method: as §1

[6] = tested on: P. aeruginosa GN_105, PmxR
Summary of the method: as §1

[7] = tested on: S. aureus ATCC 25923, MSSA
Summary of the method: as §1

in vitro = settings: human
Summary of the method: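 Cells (4000/well, pre-attached 24 h) then received 5 μM resazurin for 2 h, with fluorescence measured at ex 560/em 590.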

CCCCCCCC(=O)N[C@H](CN)C(=O)N[C@H]1CCNC(=O)[C@H](CC(C)C)NC(=O)[C@H](CCN)NC(=O)[C@H](CCN)NC(=O)[C@H](CC(C)C)NC(=O)[C@@H](Cc2ccccc2)NC(=O)[C@H](CCN)NC1=O [compound 8976, nC7CO-D-Dap-cyc[L-Dab-L-Dab-D-Phe-L-Leu-L-Dab-L-Dab-L-Leu]] (Octanoyl-[dDap][Dab][Dab][dF]L[Dab][Dab]L; lactam 2-C)
MIC, A. baumannii ATCC 19606 (A. baumannii ATCC 19606; ATCC 19606): >32 µg/mL
MIC A. baumannii GN_093 PmxR (A. baumannii GN_093 PmxR; GN 093 PmxR): 8 µg/mL (≈ 8.11 µM)
MIC, E. coli ATCC 25922 (E. coli ATCC 25922; ATCC 25922): 4 µg/mL (≈ 4.06 µM)
MIC, K. pneumoniae ATCC 13883 (K. pneumoniae ATCC 13883; ATCC 13883): 8 µg/mL (≈ 8.11 µM)
MIC, K. pneumoniae ATCC 700603, MDR ([1]; ATCC 700603): 8 µg/mL (≈ 8.11 µM)
MIC, K. pneumoniae ATCC BAA-2146, NDM-1 pos ([2]; ATCC BAA-2146): 8 µg/mL (≈ 8.11 µM)
MIC K. pneumoniae GN_102 PmxR ([3]; GN 102 PmxR): 16 µg/mL (≈ 16.2 µM)
MIC K. pneumoniae GN_106, PmxR ([4]; GN 106, PmxR): 16 µg/mL (≈ 16.2 µM)
MIC, P. aeruginosa ATCC 27853 (P. aeruginosa ATCC 27853; ATCC 27853): 2 µg/mL (≈ 2.03 µM)
MIC P. aeruginosa GN_043, PmxR ([5]; Table 6, polymyxin-resistant): 2 µg/mL (≈ 2.03 µM)
MIC P. aeruginosa GN_105, PmxR ([6]; GN 105, PmxR): 2 µg/mL (≈ 2.03 µM)
MIC, S. aureus ATCC 25923, MSSA ([7]; ATCC 25923): >32 µg/mL
CC50 at 24 h (in vitro): > 300 µM

CC(=O)N[C@H](CN)C(=O)N[C@H]1CCNC(=O)[C@H](CC(C)C)NC(=O)[C@H](CCN)NC(=O)[C@H](CCN)NC(=O)[C@H](CC(C)C)NC(=O)[C@@H](Cc2ccccc2)NC(=O)[C@H](CCN)NC1=O [compound 8980, Ac-D-Dap-cyc[L-Dab-L-Dab-D-Phe-L-Leu-L-Dab-L-Dab-L-Leu]] (Ac-[dDap][Dab][Dab][dF]L[Dab][Dab]L; lactam 2-C)
MIC, A. baumannii ATCC 19606 (A. baumannii ATCC 19606; ATCC 19606): >32 µg/mL
MIC A. baumannii GN_093 PmxR (A. baumannii GN_093 PmxR; GN 093 PmxR): >32 µg/mL
MIC, E. coli ATCC 25922 (E. coli ATCC 25922; ATCC 25922): >32 µg/mL
MIC, K. pneumoniae ATCC 13883 (K. pneumoniae ATCC 13883; ATCC 13883): >32 µg/mL
MIC, K. pneumoniae ATCC 700603, MDR ([1]; ATCC 700603): 32 µg/mL (≈ 35.5 µM)
MIC, K. pneumoniae ATCC BAA-2146, NDM-1 pos ([2]; ATCC BAA-2146): 32 µg/mL (≈ 35.5 µM)
MIC K. pneumoniae GN_102 PmxR ([3]; GN 102 PmxR): >32 µg/mL
MIC K. pneumoniae GN_106, PmxR ([4]; GN 106, PmxR): >32 µg/mL
MIC, P. aeruginosa ATCC 27853 (P. aeruginosa ATCC 27853; ATCC 27853): 4 µg/mL (≈ 4.43 µM)
MIC P. aeruginosa GN_043, PmxR ([5]; Table 6, polymyxin-resistant): >32 µg/mL
MIC P. aeruginosa GN_105, PmxR ([6]; GN 105, PmxR): >32 µg/mL
MIC, S. aureus ATCC 25923, MSSA ([7]; ATCC 25923): >32 µg/mL
CC50 at 24 h (in vitro): > 300 µM

CC(C)C[C@@H]1NC(=O)[C@H](CCN)NC(=O)[C@H](CCN)NC(=O)[C@H](CC(C)C)NC(=O)[C@@H](Cc2ccccc2)NC(=O)[C@H](CCN)NC(=O)[C@@H](NC(=O)[C@@H](CN)NC(=O)Nc2ccccc2Cl)CCNC1=O [compound 9188, 2-ClPh-NHCO-D-Dap-cyc[L-Dab-L-Dab-D-Phe-L-Leu-L-Dab-L-Dab-L-Leu]] ({NH(2-ClPh)-CO}-[dDap][Dab][Dab][dF]L[Dab][Dab]L; lactam 2-C)
MIC A. baumannii ATCC 19606 (A. baumannii ATCC 19606; A. baumannii ATCC 19606): >32 µg/mL
MIC A. baumannii GN_093 PmxR (A. baumannii GN_093 PmxR; A. baumannii GN_093 PmxR): >16 µg/mL
MIC E. coli ATCC 25922 (E. coli ATCC 25922; E. coli ATCC 25922): 8 µg/mL (≈ 7.89 µM)
MIC K. pneumoniae ATCC 13883 (K. pneumoniae ATCC 13883; K. pneumoniae ATCC 13883): 16 µg/mL (≈ 15.8 µM)
MIC K. pneumoniae ATCC 700603, MDR ([1]; K. pneumoniae ATCC 700603, MDR): 8 µg/mL (≈ 7.89 µM)
MIC K. pneumoniae ATCC BAA-2146, NDM-1 pos ([2]; K. pneumoniae ATCC BAA-2146, NDM-1 pos): 8 µg/mL (≈ 7.89 µM)
MIC K. pneumoniae GN_102 PmxR ([3]; K. pneumoniae GN_102 PmxR): >16 µg/mL
MIC K. pneumoniae GN_106, PmxR ([4]; K. pneumoniae GN_106, PmxR): >16 µg/mL
MIC P. aeruginosa ATCC 27853 (P. aeruginosa ATCC 27853; P. aeruginosa ATCC 27853): 2 µg/mL (≈ 1.97 µM)
MIC P. aeruginosa GN_043, PmxR ([5]; P. aeruginosa GN_043, PmxR): >16 µg/mL
MIC P. aeruginosa GN_105, PmxR ([6]; P. aeruginosa GN_105, PmxR): >16 µg/mL
MIC S. aureus ATCC 25923, MSSA ([7]; S. aureus ATCC 25923, MSSA): >16 µg/mL
CC50 at 24 h (in vitro): > 300 µM

CC(C)C[C@@H]1NC(=O)[C@H](CCN)NC(=O)[C@H](CCN)NC(=O)[C@H](CC(C)C)NC(=O)[C@@H](Cc2ccccc2)NC(=O)[C@H](CCN)NC(=O)[C@@H](NC(=O)[C@@H](CN)NC(=O)c2ccn(-c3ccccc3)c(=O)c2)CCNC1=O [compound 9189, 4-(1-Ph-pyridinone)-D-Dap-cyc[L-Dab-L-Dab-D-Phe-L-Leu-L-Dab-L-Dab-L-Leu]] (X12-[dDap][Dab][Dab][dF]L[Dab][Dab]L; lactam 2-C)
MIC A. baumannii ATCC 19606 (A. baumannii ATCC 19606; ATCC 19606): >32 µg/mL
MIC A. baumannii GN_093 PmxR (A. baumannii GN_093 PmxR; GN 093 PmxR): >32 µg/mL
MIC E. coli ATCC 25922 (E. coli ATCC 25922; ATCC 25922): >32 µg/mL
MIC K. pneumoniae ATCC 13883 (K. pneumoniae ATCC 13883; ATCC 13883): >32 µg/mL
MIC K. pneumoniae ATCC 700603, MDR ([1]; ATCC 700603): 32 µg/mL (≈ 30.3 µM)
MIC K. pneumoniae ATCC BAA-2146, NDM-1 pos ([2]; ATCC BAA-2146): 32 µg/mL (≈ 30.3 µM)
MIC K. pneumoniae GN_102 PmxR ([3]; GN 102 PmxR): >32 µg/mL
MIC K. pneumoniae GN_106, PmxR ([4]; GN 106, PmxR): >32 µg/mL
MIC P. aeruginosa ATCC 27853 (P. aeruginosa ATCC 27853; ATCC 27853): 4 µg/mL (≈ 3.78 µM)
MIC P. aeruginosa GN_043, PmxR ([5]; P. aeruginosa GN_043, PmxR): 4 µg/mL (≈ 3.78 µM)
MIC P. aeruginosa GN_105, PmxR ([6]; GN 105, PmxR): 16 µg/mL (≈ 15.1 µM)
MIC S. aureus ATCC 25923, MSSA ([7]; ATCC 25923): >32 µg/mL
CC50 at 24 h (in vitro): > 300 µM
